From US5358947A, “Angiotensin II receptor blocking 2,3-substituted pyrazolo[1,5-a]-1,3,5-triazin-4(3H)-ones” (American Cyanamid Company, priority 1993, dated 1994)
Values joined by “and” are separate entries in the source; they are usually repeats but may differ in a detail not shown here. Identical values can stand only once.

Tested on: ANGIOTENSIN II (AII) VASOPRESSOR RESPONSE
Test: AII Challenge: angiotensin II (AII) vasopressor response in conscious rats
Format: in vivo
Parameters: Response After AII / Change / Average Change: unit not given here
Details: for Response After AII / Change / Control Before AII: individual rat; for Control Before AII: in mmHg (unit assumed); for % Inhibition / Average Change: n = 2
Text: By administering a compound of this invention to a rat, and then challenging with angiotensin II, a blockage of the vasopressor response is realized.
Conscious Male Okamoto-Aoki SHR, 16-20 weeks old, weighing approximately 330 g are purchased from Charles River Labs (Wilmington, Mass.). Conscious rats are restrained in a supine position with elastic tape. The area at the base of the tail is locally anesthetized by subcutaneous infiltration with 2% procaine. The ventral caudal artery and vein are isolated, and a cannula made of polyethylene (PE) 10-20 tubing (fused together by heat) is passed into the lower abdominal aorta and vena cava, respectively. The cannula is secured, heparinized (1,000 I.U./ml), sealed and the wound is closed. The animals are placed in plastic restraining cages in an upright position. The cannula is attached to s Statham P23Db pressure transducer, and pulsatile blood pressure is recorded to 10-15 minutes with a Gould Brush recorder. (Chan et al., (Drug Development Res., 18:75-94, 1989).
Angiotensin II (human sequence, Sigma Chem. Co., St. Louis, Mo.) of 0.05 and 0.1 ug/kg i.v. is injected into all rats (predosing response.). Then a test compound, vehicle or a known angiotensin II antagonist is administered i.v., i.p. or orally to each set of rats. The two doses of angiotensin II are given to each rat again at 30, 60, 90, 120, 180, 240 and 300 minutes post dosing the compound or vehicle. The vasopressor response of angiotensin II by a compound is calculated using the vasopressor response (increase in systolic blood pressure) of angiotensin II of each rat predosing the compound as 100%. A compound is considered active if at 30 mg/kg i.v. it antagonized at least 50% of the response.

[1] = 10 mg/kg i.v., AII 0.05 mcg/kg, 30 min post dose
[2] = 10 mg/kg i.v., AII 0.05 mcg/kg, 30 min post dose, listed as Ex. 10
[3] = 10 mg/kg i.v., AII 0.05 mcg/kg, 60 min post dose
[4] = 10 mg/kg i.v., AII 0.05 mcg/kg, 60 min post dose, listed as Ex. 10
[5] = 10 mg/kg i.v., AII 0.1 mcg/kg, 30 min post dose
[6] = 10 mg/kg i.v., AII 0.1 mcg/kg, 30 min post dose, listed as Ex. 10
[7] = 10 mg/kg i.v., AII 0.1 mcg/kg, 60 min post dose
[8] = 10 mg/kg i.v., AII 0.1 mcg/kg, 60 min post dose, listed as Ex. 10
[9] = 20 mg/kg i.v., AII 0.05 mcg/kg, 90 min post dose
[10] = 20 mg/kg i.v., AII 0.05 mcg/kg, 90 min post dose, listed as Ex. 10
[11] = 20 mg/kg i.v., AII 0.05 mcg/kg, 120 min post dose
[12] = 20 mg/kg i.v., AII 0.05 mcg/kg, 120 min post dose, listed as Ex. 10
[13] = 20 mg/kg i.v., AII 0.05 mcg/kg, 180 min post dose
[14] = 20 mg/kg i.v., AII 0.05 mcg/kg, 180 min post dose, listed as Ex. 10
[15] = 20 mg/kg i.v., AII 0.05 mcg/kg, 240 min post dose
[16] = 20 mg/kg i.v., AII 0.05 mcg/kg, 240 min post dose, listed as Ex. 10
[17] = 20 mg/kg i.v., AII 0.05 mcg/kg, 300 min post dose, listed as Ex. 10
[18] = 20 mg/kg i.v., AII 0.05 mcg/kg, 300 min post dose
[19] = 20 mg/kg i.v., AII 0.1 mcg/kg, 90 min post dose
[20] = 20 mg/kg i.v., AII 0.1 mcg/kg, 90 min post dose, listed as Ex. 10
[21] = 20 mg/kg i.v., AII 0.1 mcg/kg, 120 min post dose
[22] = 20 mg/kg i.v., AII 0.1 mcg/kg, 120 min post dose, listed as Ex. 10
[23] = 20 mg/kg i.v., AII 0.1 mcg/kg, 180 min post dose, listed as Ex. 10
[24] = 20 mg/kg i.v., AII 0.1 mcg/kg, 180 min post dose
[25] = 20 mg/kg i.v., AII 0.1 mcg/kg, 240 min post dose, listed as Ex. 10
[26] = 20 mg/kg i.v., AII 0.1 mcg/kg, 240 min post dose
[27] = 20 mg/kg i.v., AII 0.1 mcg/kg, 300 min post dose
[28] = 20 mg/kg i.v., AII 0.1 mcg/kg, 300 min post dose, listed as Ex. 10

CCCCc1nc2cc(-c3ccccc3)nn2c(=O)n1Cc1ccc(-c2ccccc2-c2nnn[nH]2)cc1 [Example 10, 2-Butyl-7-phenyl-3-[[2'-(1H-tetrazol-5-yl)[1,1'-biphenyl]-4-yl]methyl]pyrazolo[1,5-a]-1,3,5-triazin-4(3H)-one]
Response After AII [1]: 235 | Change [2]: 15 and 5 | Response After AII [2]: 215 | Control Before AII [2]: 220 and 210 | % Inhibition [1]: 80% | Average Change [1]: 10 | Control Before AII [3]: 210 | Change [4]: 45 and 15 | Response After AII [4]: 255 and 230 | Control Before AII [4]: 215 | % Inhibition [3]: 40% | Average Change [3]: 30 | Response After AII [5]: 245 | Control Before AII [5]: 210 | Change [6]: 35 and 5 | Response After AII [6]: 215 | % Inhibition [5]: 60% | Average Change [5]: 20 | Response After AII [7]: 250 | Change [8]: 40 and 10 | Response After AII [8]: 215 | Control Before AII [8]: 210 and 205 | % Inhibition [7]: 50% | Average Change [7]: 25 | Change [9]: 10 | Response After AII [10]: 205 and 215 | Control Before AII [10]: 195 and 205 | % Inhibition [9]: 80% | Average Change [9]: 10 | Response After AII [11]: 210 | Change [12]: 10 and 20 | Response After AII [12]: 185 | Control Before AII [12]: 175 and 190 | % Inhibition [11]: 70% | Average Change [11]: 15 | Control Before AII [13]: 185 | Change [14]: 10 and 25 | Response After AII [14]: 195 and 210 | % Inhibition [13]: 65% | Average Change [13]: 17.5 | Response After AII [15]: 190 | Change [16]: 10 and 5 | Response After AII [16]: 205 | Control Before AII [16]: 195 and 185 | % Inhibition [15]: 85% | Average Change [15]: 7.5 | Change [17]: 30 and 15 | Response After AII [17]: 220 and 195 | Control Before AII [17]: 190 and 180 | % Inhibition [18]: 55% | Average Change [18]: 22.5 | Response After AII [19]: 210 | Change [20]: 10 and 0 | Response After AII [20]: 215 | Control Before AII [20]: 205 and 210 | % Inhibition [19]: 90% | Average Change [19]: 5 | Response After AII [21]: 200 | Change [22]: 5 and 10 | Response After AII [22]: 205 | Control Before AII [22]: 200 and 190 | % Inhibition [21]: 85% | Average Change [21]: 7.5 | Change [23]: 20 and 15 | Response After AII [23]: 210 and 200 | Control Before AII [23]: 190 and 185 | % Inhibition [24]: 65% | Average Change [24]: 17.5 | Change [25]: 17 and 10 | Response After AII [25]: 217 and 195 | Control Before AII [25]: 200 and 185 | % Inhibition [26]: 73% | Average Change [26]: 13.5 | Change [27]: 30 | Response After AII [27]: 235 | Response After AII [28]: 205 | Control Before AII [28]: 205 and 175 | % Inhibition [27]: 40% | Average Change [27]: 30
